Assay results: patent US6492367B1, “Sulfamato hydroxamic acid metalloprotease inhibitor” (G. D. Searle & Company, priority 1999, dated 2002)

Assays:
[1] = tested on: advanced, rapidly progressive, treatment-refractory solid tumor cancers (colorectal, pancreatic, ovarian, prostate); conditions: cited from earlier work
recombinant human MMP-13 = recombinant human MMP-13 (Homo sapiens, UniProt P45452); experiment: In vitro metalloprotease inhibition, fluorogenic MCA peptide substrate; format: biochemical; conditions: Inhibition Table; room temperature, pH 7.5, 4 μM substrate
Description: The compounds prepared in the manner described in the Examples above were assayed for activity by an in vitro assay. Following the procedures of Knight et al., FEDS Lett. 296(3):263 (1992).
More specifically, recombinant human MMP-13 and MMP-1 enzymes were prepared in laboratories of the assignee following usual laboratory procedures. MMP-13 from a full length cDNA clone was expressed as a proenzyme using a baculovirus as discussed in V.A. Luckow, insect Cell Expression Technology, pages 183-218, in Protein Engineering: Principles and Practice, J. L. Cleland et al eds., Wiley-Liss, Inc., (1996). […]
In the absence of inhibitor activity, a fluorogenic peptide was cleaved at the gly-leu peptide bond, separating the highly fluorogenic peptide from a 2,4-dinitrophenyl quencher, resulting in an increase of fluorescence intensity (excitation at 328 nm/emission at 415 nm). Inhibition was measured as a reduction in fluorescent intensity as a function of inhibitor concentration, using a Perkin Elmer L550 plate reader. The IC50 values were calculated from those values. […]

recombinant human MMP-1 = target: T1, recombinant human MMP-1 (Homo sapiens, UniProt P03956); experiment: as above; conditions: Inhibition Table; room temperature, pH 7.5, 4 μM substrate
T1 sequence (P03956 100-469): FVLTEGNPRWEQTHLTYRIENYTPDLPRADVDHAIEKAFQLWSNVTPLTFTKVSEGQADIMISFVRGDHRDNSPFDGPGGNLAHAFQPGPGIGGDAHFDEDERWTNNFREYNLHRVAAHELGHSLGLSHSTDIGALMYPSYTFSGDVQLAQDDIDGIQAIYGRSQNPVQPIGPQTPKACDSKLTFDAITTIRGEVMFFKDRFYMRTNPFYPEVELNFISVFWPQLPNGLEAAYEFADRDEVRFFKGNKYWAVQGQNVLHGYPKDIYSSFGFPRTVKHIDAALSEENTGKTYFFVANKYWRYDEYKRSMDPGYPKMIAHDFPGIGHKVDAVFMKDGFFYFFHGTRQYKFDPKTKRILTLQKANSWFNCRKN
Description: The enzyme was also activated using APMA and was then purified over a hydroxamic acid column.
(§1) The enzyme substrate is a methoxycoumarin-containing polypeptide having the following sequence:
(§2) MCA-ProLeuGlyLeuDpaAlaArgNH2, wherein MCA is methoxycoumarin and Dpa is 3-(2,4-dinitrophenyl)-L-2,3-diaminopropionyl alanine.
(§3) Assays were carried out at room temperature, and dimethyl sulfoxide (DMSO) at a final concentration of 1 percent was used to dissolve inhibitor compound.
(§4) The assayed inhibitor compound in DMSO/buffer solution was compared to an equal amount of DMSO/buffer with no inhibitor as control using Microfluor T White Plates (Dynatech). The inhibitor or control solution was maintained in the plate for minutes and the substrate was added to provide a final concentration of 4 μM.

MMP-2 = target: T2, MMP-2 (Homo sapiens, UniProt P08253); experiment: as above; conditions: Inhibition Table; room temperature, pH 7.5, 4 μM substrate
T2 sequence (P08253 110-660): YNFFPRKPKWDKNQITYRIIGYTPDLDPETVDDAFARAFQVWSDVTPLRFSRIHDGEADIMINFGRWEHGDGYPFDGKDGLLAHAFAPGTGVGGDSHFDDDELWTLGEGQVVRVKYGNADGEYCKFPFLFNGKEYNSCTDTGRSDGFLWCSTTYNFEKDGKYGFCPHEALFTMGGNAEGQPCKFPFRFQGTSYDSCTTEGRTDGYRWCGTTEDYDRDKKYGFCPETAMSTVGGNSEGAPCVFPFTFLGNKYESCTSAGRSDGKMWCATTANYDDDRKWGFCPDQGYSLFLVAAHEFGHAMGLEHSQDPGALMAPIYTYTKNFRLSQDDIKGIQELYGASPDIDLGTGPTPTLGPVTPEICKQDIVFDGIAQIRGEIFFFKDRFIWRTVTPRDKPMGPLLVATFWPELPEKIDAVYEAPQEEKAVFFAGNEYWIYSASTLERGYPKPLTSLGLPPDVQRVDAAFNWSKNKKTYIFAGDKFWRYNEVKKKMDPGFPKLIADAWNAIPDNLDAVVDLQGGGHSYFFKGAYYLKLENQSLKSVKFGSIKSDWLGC
Description: as §1, §2, §3, §4

Compound | most common drug-related toxicity ([1]; Phase I/II clinical trials) | cancer-specific antigens used as surrogate markers for biological activity ([1]; Phase I/II studies, patients with advanced solid tumor cancers) | ED50 MMP-13 (recombinant human MMP-13) | ED50 MMP-1 (recombinant human MMP-1) | ED50 MMP-2 (MMP-2)
CNC(=O)[C@@H](NC(=O)[C@H](CC(C)C)[C@H](O)C(=O)NO)C(C)(C)C [marimastat, Marimastat] | musculoskeletal pain and stiffness | dose-related reduction in the rise of cancer-specific antigens |  |  | 
4-[[4-[[(3R,5R)-rel-3,5-Dimethyl-1-piperidinyl]carbonyl]-1-piperidinyl]sulfonyl]tetrahydro-N-hydroxy-2H-pyran-4-carboxamide and 4-[[4-[[(3R,5S)-rel-3,5-dimethyl-1-piperidinyl]carbonyl]-1-piperidinyl]sulfonyl]tetrahydro-N-hydroxy-2H-pyran-4-carboxamide [Example 49] |  |  | <10,000 nM | <10,000 nM | <10,000 nM
